In test [1] the target is Hydroxycarboxylic acid receptor 2 (Homo sapiens, UniProt Q8TDS4).
In test [2] the target is T1, Androgen receptor (Rattus norvegicus, UniProt P15207).
T1 sequence (P15207 whole entry): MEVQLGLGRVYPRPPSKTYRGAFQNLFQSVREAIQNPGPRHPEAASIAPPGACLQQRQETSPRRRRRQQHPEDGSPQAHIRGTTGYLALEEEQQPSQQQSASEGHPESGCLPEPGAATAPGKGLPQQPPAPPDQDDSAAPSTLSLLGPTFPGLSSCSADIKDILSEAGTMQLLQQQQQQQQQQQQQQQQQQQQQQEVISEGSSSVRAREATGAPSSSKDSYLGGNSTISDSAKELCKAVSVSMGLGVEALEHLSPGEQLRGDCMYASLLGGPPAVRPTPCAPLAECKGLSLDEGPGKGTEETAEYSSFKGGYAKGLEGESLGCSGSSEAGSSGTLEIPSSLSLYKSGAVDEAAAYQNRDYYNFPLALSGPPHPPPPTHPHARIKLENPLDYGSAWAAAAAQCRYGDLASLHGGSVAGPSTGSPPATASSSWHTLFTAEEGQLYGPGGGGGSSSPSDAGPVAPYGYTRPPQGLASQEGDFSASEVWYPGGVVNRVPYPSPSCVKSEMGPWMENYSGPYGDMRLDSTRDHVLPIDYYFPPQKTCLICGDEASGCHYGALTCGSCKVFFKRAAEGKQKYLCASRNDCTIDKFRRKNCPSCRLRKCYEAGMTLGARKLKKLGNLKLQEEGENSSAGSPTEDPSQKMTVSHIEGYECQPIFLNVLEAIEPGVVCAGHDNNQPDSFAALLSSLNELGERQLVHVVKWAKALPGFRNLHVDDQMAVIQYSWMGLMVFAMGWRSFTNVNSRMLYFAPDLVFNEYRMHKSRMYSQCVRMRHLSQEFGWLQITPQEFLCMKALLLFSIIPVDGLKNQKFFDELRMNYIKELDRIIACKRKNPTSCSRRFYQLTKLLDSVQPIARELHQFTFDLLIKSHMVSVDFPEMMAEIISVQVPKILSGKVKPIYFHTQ
It counts as functional.

A further test has as its target T2, Adenosine receptor A1 (Homo sapiens, UniProt P30542).
T2 sequence (P30542 whole entry): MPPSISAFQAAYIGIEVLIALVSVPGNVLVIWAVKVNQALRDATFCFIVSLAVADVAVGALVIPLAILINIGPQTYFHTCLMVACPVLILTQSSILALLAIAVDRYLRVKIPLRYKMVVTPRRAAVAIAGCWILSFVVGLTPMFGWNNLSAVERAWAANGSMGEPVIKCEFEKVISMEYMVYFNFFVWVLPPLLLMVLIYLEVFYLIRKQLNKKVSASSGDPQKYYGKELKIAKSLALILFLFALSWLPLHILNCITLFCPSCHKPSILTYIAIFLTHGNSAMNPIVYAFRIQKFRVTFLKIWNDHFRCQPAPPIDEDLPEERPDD

Test [3] has as its target T3, Muscarinic acetylcholine receptor M5 (Homo sapiens, UniProt P08912).
T3 sequence (P08912 whole entry): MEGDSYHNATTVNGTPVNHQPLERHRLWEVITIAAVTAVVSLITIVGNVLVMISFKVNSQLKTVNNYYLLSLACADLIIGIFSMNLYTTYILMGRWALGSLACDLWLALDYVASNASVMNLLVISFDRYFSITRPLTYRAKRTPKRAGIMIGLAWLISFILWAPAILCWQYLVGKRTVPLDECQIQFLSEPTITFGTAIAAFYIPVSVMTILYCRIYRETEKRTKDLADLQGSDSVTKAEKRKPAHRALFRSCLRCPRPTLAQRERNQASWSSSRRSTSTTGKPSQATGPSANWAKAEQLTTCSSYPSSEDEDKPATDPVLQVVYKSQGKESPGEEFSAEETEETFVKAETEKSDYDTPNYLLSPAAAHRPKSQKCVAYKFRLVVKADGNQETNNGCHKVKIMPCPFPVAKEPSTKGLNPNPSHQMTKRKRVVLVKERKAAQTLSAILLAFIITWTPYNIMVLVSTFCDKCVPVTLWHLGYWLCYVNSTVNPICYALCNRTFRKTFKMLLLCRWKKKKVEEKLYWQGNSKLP

A further test addresses Cannabinoid receptor 1 (Homo sapiens, UniProt P21554). It counts as functional.
Test [4] addresses 5-hydroxytryptamine receptor 7 (Homo sapiens, UniProt P34969).
Test [5] has as its target Rod cGMP-specific 3',5'-cyclic phosphodiesterase subunit alpha (Homo sapiens, UniProt P16499). It is filed as functional.
For the next test, the target named is T4, Thromboxane A2 receptor (Homo sapiens, UniProt P21731).
T4 sequence (P21731 whole entry): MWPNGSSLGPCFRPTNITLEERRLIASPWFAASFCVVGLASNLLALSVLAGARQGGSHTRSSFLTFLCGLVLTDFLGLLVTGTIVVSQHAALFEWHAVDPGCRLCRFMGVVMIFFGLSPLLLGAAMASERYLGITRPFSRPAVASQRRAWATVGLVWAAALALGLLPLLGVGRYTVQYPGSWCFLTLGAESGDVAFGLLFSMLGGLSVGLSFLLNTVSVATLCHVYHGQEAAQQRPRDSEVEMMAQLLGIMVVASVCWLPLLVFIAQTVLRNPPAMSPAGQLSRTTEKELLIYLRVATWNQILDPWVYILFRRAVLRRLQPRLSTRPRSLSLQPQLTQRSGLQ
It is filed as functional.

Test [6] concerns the target T1, Androgen receptor.
Test [7] concerns the target Voltage-dependent L-type calcium channel subunit alpha-1C (Homo sapiens, UniProt Q13936). It counts as functional, cell-based.

Structures are written as SMILES.
Further: assay procedure not described here.

Sequence of Rod cGMP-specific 3',5'-cyclic phosphodiesterase subunit alpha (P16499 whole entry): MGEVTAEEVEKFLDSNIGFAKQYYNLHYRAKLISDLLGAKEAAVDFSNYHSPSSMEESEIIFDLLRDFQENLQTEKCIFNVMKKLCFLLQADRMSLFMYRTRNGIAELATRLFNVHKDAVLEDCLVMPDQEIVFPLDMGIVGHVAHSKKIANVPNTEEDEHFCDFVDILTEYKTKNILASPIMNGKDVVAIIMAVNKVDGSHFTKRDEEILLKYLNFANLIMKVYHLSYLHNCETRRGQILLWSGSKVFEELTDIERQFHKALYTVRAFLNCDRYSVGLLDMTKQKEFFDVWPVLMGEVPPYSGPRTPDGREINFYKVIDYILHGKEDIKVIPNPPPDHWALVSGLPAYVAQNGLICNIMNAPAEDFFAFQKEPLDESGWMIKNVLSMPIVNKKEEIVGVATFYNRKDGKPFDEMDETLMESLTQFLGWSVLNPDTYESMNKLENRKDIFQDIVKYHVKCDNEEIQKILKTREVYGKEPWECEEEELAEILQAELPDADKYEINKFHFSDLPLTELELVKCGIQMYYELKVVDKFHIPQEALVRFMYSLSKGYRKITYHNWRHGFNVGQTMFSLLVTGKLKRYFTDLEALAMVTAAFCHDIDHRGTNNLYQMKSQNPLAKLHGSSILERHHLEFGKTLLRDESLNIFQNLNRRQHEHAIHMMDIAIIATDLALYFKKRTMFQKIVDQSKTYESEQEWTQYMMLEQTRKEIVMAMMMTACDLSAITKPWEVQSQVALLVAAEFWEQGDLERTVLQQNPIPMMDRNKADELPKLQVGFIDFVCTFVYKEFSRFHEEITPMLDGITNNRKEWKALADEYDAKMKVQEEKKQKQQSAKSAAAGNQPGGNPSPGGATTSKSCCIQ
Sequence of 5-hydroxytryptamine receptor 7 (P34969 whole entry): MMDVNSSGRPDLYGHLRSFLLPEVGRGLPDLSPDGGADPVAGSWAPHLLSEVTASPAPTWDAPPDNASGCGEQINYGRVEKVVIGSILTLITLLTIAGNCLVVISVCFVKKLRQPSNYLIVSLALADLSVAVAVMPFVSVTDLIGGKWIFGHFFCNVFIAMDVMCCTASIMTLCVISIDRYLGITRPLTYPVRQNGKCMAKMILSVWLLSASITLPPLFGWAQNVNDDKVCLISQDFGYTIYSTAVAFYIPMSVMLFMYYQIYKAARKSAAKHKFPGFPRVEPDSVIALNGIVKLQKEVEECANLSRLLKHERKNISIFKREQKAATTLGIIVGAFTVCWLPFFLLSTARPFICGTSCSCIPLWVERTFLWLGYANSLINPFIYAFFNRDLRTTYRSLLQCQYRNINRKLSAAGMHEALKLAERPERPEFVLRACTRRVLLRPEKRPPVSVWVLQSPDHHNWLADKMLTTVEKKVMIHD
Sequence of Cannabinoid receptor 1 (P21554 whole entry): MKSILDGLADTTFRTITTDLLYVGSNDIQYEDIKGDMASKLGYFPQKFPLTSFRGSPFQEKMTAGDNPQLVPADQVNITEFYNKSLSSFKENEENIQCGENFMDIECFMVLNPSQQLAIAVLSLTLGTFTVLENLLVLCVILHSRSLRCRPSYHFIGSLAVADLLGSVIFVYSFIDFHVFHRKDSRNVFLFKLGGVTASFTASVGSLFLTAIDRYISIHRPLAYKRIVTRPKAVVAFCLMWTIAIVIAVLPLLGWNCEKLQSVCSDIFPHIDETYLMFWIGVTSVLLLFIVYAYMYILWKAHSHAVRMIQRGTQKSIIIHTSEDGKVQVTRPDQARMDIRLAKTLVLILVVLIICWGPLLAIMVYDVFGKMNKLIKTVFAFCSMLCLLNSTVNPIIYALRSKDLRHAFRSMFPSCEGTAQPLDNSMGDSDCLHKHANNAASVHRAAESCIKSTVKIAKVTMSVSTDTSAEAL
Sequence of Hydroxycarboxylic acid receptor 2 (Q8TDS4 whole entry): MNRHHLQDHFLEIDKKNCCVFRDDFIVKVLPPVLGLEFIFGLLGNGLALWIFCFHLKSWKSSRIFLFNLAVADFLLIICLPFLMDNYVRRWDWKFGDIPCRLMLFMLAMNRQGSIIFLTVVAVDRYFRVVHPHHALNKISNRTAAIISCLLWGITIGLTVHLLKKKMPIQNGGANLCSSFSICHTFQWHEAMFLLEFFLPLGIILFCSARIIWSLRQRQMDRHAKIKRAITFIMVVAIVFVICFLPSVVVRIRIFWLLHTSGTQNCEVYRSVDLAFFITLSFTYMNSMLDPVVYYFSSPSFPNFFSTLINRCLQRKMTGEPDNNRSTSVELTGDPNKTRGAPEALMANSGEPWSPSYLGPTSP
Sequence of Voltage-dependent L-type calcium channel subunit alpha-1C (Q13936 whole entry): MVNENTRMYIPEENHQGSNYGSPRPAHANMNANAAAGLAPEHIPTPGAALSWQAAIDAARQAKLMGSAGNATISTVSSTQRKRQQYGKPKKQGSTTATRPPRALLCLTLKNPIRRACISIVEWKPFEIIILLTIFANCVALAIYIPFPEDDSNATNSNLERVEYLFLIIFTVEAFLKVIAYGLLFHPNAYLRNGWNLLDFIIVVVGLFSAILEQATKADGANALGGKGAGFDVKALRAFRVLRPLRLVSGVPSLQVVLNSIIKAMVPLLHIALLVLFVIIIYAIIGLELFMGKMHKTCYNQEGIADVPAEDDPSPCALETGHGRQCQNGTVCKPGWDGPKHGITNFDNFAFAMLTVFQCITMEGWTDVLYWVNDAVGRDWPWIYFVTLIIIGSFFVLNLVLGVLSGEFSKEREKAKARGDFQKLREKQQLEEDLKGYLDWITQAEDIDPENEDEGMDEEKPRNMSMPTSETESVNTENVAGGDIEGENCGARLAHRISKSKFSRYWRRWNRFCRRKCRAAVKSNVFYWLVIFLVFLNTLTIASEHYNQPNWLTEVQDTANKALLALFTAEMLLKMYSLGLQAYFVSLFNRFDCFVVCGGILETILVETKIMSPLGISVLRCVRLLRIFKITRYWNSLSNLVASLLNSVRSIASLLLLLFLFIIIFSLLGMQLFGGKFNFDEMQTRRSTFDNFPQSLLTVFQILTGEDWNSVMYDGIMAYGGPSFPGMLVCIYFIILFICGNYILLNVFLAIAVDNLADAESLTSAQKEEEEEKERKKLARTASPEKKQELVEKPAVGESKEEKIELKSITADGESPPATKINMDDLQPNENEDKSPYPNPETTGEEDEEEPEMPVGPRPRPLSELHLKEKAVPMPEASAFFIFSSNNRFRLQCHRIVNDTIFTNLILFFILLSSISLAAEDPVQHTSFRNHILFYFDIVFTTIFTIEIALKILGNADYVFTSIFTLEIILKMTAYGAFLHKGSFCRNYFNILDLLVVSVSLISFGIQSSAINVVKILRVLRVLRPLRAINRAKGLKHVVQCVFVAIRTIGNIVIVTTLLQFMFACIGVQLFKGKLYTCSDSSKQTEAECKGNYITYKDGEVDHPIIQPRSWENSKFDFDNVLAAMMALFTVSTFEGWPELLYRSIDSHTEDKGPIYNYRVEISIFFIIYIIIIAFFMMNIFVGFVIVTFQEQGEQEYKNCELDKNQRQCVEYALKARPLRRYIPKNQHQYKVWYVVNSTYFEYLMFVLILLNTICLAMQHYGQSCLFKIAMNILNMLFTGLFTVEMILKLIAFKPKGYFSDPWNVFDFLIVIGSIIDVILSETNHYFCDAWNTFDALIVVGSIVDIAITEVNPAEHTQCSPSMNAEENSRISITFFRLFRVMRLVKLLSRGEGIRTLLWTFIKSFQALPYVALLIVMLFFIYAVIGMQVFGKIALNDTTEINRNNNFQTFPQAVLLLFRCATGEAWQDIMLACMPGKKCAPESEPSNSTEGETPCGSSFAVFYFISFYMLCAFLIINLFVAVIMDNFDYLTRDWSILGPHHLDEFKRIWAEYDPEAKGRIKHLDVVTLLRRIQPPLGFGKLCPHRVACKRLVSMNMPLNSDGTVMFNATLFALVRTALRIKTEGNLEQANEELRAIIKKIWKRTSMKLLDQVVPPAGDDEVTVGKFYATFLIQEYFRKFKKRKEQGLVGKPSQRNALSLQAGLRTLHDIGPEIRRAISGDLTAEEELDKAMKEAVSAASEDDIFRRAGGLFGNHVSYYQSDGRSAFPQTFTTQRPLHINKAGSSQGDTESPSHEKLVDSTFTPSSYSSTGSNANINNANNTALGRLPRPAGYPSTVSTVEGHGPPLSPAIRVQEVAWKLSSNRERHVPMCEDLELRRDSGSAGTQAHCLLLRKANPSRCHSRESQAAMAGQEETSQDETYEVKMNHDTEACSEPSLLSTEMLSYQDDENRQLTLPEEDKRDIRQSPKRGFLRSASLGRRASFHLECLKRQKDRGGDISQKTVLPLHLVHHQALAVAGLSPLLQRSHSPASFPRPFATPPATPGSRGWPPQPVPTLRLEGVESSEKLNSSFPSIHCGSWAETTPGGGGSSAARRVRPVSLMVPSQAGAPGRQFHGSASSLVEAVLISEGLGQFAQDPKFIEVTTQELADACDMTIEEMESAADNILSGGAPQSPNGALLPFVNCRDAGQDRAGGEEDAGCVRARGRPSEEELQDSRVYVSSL

As to `CCOC(=O)[C@H](CCc1ccccc1)N[C@@H](C)C(=O)N1[C@H](C(=O)O)C[C@@H]2CCC[C@@H]21`, the AC50 – broadly, the concentration giving half of the maximal activity seen – in test [1] was more than 10 µM.

Molecule `C=CCc1ccccc1OCC(O)CNC(C)C` (stereo unspecified) [ALPRENOLOL] returned an AC50 at Androgen receptor [2] of more than 30 µM.

On to `CC[C@H]1OC(=O)[C@H](C)[C@@H](O[C@H]2C[C@@](C)(OC)[C@@H](O)[C@H](C)O2)[C@H](C)[C@@H](O[C@@H]2O[C@H](C)C[C@H](N(C)C)[C@H]2O)[C@](C)(O)C[C@@H](C)CN(C)[C@H](C)[C@@H](O)[C@]1(C)O` [AZITHROMYCIN], for which the AC50 was more than 30 µM on Adenosine receptor A1, more than 10 µM in [3], more than 10 µM at Cannabinoid receptor 1 and more than 10 µM in test [4].

With `NCC(CC(=O)O)c1ccc(Cl)cc1` (stereo unspecified) [BACLOFEN], the half-maximal activity concentration (AC50) was more than 10 µM in test [3]; more than 10 µM on Cannabinoid receptor 1; more than 10 µM in test [4]; more than 10 µM in test [5]; more than 30 µM at Thromboxane A2 receptor.

The molecule `CCc1oc2ccccc2c1C(=O)c1cc(I)c(O)c(I)c1` [BENZIODARONE] had an AC50 at Adenosine receptor A1 of 18.2 µM.

`CC(C)C[C@H]1C(=O)N2CCC[C@H]2[C@]2(O)O[C@](NC(=O)[C@@H]3C=C4c5cccc6[nH]c(Br)c(c56)C[C@H]4N(C)C3)(C(C)C)C(=O)N12` [BROMOCRIPTINE] registered an AC50 at Thromboxane A2 receptor of more than 30 µM.

Turning to `Cc1ccc(-c2cc(C(F)(F)F)nn2-c2ccc(S(N)(=O)=O)cc2)cc1` [CELECOXIB], the concentration at half-maximal activity (AC50) at Androgen receptor [6] was more than 30 µM; in [3], more than 10 µM; at Cannabinoid receptor 1, more than 10 µM; in [1], more than 10 µM; in test [4], more than 10 µM; in [5], more than 10 µM.

In turn, `CC1=C(C(=O)O)N2C(=O)[C@@H](NC(=O)[C@H](N)c3ccccc3)[C@H]2SC1` [CEPHALEXIN ANHYDROUS] showed an AC50 in [1] of more than 10 µM.

In the case of `CN(C)CCC(c1ccc(Cl)cc1)c1ccccn1` (stereo unspecified) [CHLORPHENIRAMINE], the AC50 in [3] is 6.12 µM; at Cannabinoid receptor 1 it was more than 10 µM; in test [4], more than 10 µM; in test [5], more than 10 µM.

In the case of `O=C(Cc1ccc(-c2ccccc2)cc1)Nc1ccccn1` [DIFENPIRAMIDE], the AC50 at Adenosine receptor A1 is more than 30 µM.

Take `Cc1cc(C#N)cc(C)c1Oc1nc(Nc2ccc(C#N)cc2)nc(N)c1Br` [ETRAVIRINE]: on Adenosine receptor A1, the activity was half-maximal at 22.5 µM (AC50).

As for `O=C(OCC(O)CO)c1ccccc1Nc1ccnc2cc(Cl)ccc12` (stereo unspecified) [GLAFENINE], the AC50 at Androgen receptor [2] and at Thromboxane A2 receptor was more than 30 µM each time.

`C[C@]12CCC(=O)C=C1CC[C@@H]1[C@@H]2[C@@H](O)C[C@@]2(C)[C@H]1CC[C@]2(O)C(=O)CO` [HYDROCORTISONE]: the AC50 on Androgen receptor [6] was more than 30 µM; in test [1], more than 10 µM.

Consider `c1ccc([C@H]2CN3CCSC3=N2)cc1` [LEVAMISOLE], for which, on Thromboxane A2 receptor, the AC50 is more than 30 µM.

In the case of `C[C@@H](O)[C@H]1C(=O)N2C(C(=O)O)=C(S[C@@H]3CN[C@H](C(=O)N(C)C)C3)[C@H](C)[C@H]12` [MEROPENEM], at Thromboxane A2 receptor, the AC50 was more than 300 µM.

Turning to `CNC1Cc2ccccc2N(C)c2ccccc21` (stereo unspecified) [METAPRAMINE], the AC50 on Androgen receptor [2] and at Thromboxane A2 receptor was more than 30 µM each time.

`CC1(C)NC(=O)N(c2ccc([N+](=O)[O-])c(C(F)(F)F)c2)C1=O` [NILUTAMIDE] displayed an AC50 at Adenosine receptor A1 of more than 30 µM.

As for `CC[C@H]1[C@@H](O)[C@@H]2[C@H](CC[C@]3(C)[C@@H]([C@H](C)CCC(=O)O)CC[C@@H]23)[C@@]2(C)CC[C@@H](O)C[C@@H]12` [OBETICHOLIC ACID], the concentration at half-maximal activity (AC50) (at Androgen receptor [2]; in [7]) was more than 30 µM throughout.

On Androgen receptor [2], `COc1ccc(CC(C)(C)NC[C@H](O)c2cc(O)cc3c2OCC(=O)N3)cc1` [OLODATEROL] displayed an AC50 of more than 30 µM.

`C1CCC(C(CC2CCCCN2)C2CCCCC2)CC1` (stereo unspecified) [PERHEXILINE] returned an AC50 at Androgen receptor [2] of more than 30 µM.

As for `c1cnc(N2CCN(Cc3ccc4c(c3)OCO4)CC2)nc1` [PIRIBEDIL], the AC50 on Thromboxane A2 receptor is more than 30 µM.

Turning to `COCCCN1CCC(NC(=O)c2cc(Cl)c(N)c3c2OCC3)CC1` [PRUCALOPRIDE], the AC50 at Adenosine receptor A1 is more than 30 µM.

Take `COc1ccccc1OCC(O)CN1CCN(CC(=O)Nc2c(C)cccc2C)CC1` (stereo unspecified) [RANOLAZINE]: the AC50 in test [7] is more than 50 µM.

On to `CS(=O)(=O)c1ccc(C2=C(c3ccccc3)C(=O)OC2)cc1` [ROFECOXIB], for which the AC50 (in test [3]; on Cannabinoid receptor 1; in test [4]; in test [5]) was more than 10 µM in each case.

Take `CO[C@H]1C[C@@H]2CC[C@@H](C)[C@@](O)(O2)C(=O)C(=O)N2CCCC[C@H]2C(=O)O[C@H]([C@H](C)C[C@@H]2CC[C@@H](O)[C@H](OC)C2)CC(=O)[C@H](C)/C=C(\C)[C@@H](O)[C@@H](OC)C(=O)[C@H](C)C[C@H](C)/C=C/C=C/C=C/1C` [SIROLIMUS]: the figures for the half-maximal activity concentration (AC50) (at Androgen receptor [6]; in test [7]) were 11.9 µM and more than 50 µM, respectively.

`Cc1cn([C@H]2C=C[C@@H](CO)O2)c(=O)[nH]c1=O` [STAVUDINE]: the concentration at half-maximal activity (AC50) at Adenosine receptor A1 was more than 30 µM; in test [3], more than 10 µM; at Cannabinoid receptor 1, more than 10 µM; in test [4], more than 10 µM; at Thromboxane A2 receptor it was more than 30 µM.

`Cn1nnc2c(C(N)=O)ncn2c1=O` [TEMOZOLOMIDE]: the AC50 in [3] is more than 10 µM; at Cannabinoid receptor 1, more than 10 µM; in test [4], more than 10 µM; on Thromboxane A2 receptor, more than 30 µM.

As for `Clc1ccc2nsnc2c1NC1=NCCN1` [TIZANIDINE], the values for the AC50 (on Androgen receptor [6]; in [1]) were more than 30 µM and more than 10 µM, respectively.

As for `CCOC(=O)[C@H](CCc1ccccc1)N[C@@H](C)C(=O)N1[C@H](C(=O)O)C[C@H]2CCCC[C@@H]21` [TRANDOLAPRIL], the half-maximal activity concentration (AC50) at Adenosine receptor A1 is more than 30 µM.

Regarding `O=C(O[C@H]1C[C@H]2CC[C@@H](C1)[N+]21CCCC1)C(O)(c1ccccc1)c1ccccc1` [TROSPIUM], the half-maximal activity concentration (AC50) at Androgen receptor [2] is more than 30 µM.

In the case of `N[C@@H]1[C@H]2CN(c3nc4c(cc3F)c(=O)c(C(=O)O)cn4-c3ccc(F)cc3F)C[C@@H]12` [TROVAFLOXACIN], the AC50 on Androgen receptor [2] and on Thromboxane A2 receptor was more than 30 µM throughout.

As for `CCCCCCOc1nsnc1C1=CCCN(C)C1` [XANOMELINE], the AC50 in [7] came to 10 µM.

Molecule `Cc1cn([C@H]2C[C@H](N=[N+]=[N-])[C@@H](CO)O2)c(=O)[nH]c1=O` [ZIDOVUDINE] displayed an AC50 in test [1] of more than 10 µM.

The molecule `NS(=O)(=O)Cc1noc2ccccc12` [ZONISAMIDE] came in with an AC50 on Androgen receptor [6] of more than 10 µM.

Source of the values: ChEMBL document CHEMBL5291721, “A preclinical secondary pharmacology resource illuminates target-adverse drug reaction associations of marketed drugs” (Nat Commun, 2023).
